Source: patent publication US20180265515A1 (Genentech, Inc., priority 2015, published 2018)

What was measured:
[1] = target: T1, isolated recombinant JAK1 kinase domain (Homo sapiens, UniProt P23458); experiment: JAK1 enzyme assay (Caliper LabChip, Ki); type: biochemical; conditions: recombinant JAK1 kinase domain, 25 μM ATP
T1 construct: The activity of the isolated recombinant JAK1 and JAK2 kinase domain was measured
In short: (§1)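 Values are Ki estimates derived with the Morrison tight-binding equation modified for competition with ATP. Activity of the recombinant kinase domains was measured as peptide phosphorylation on a Caliper LabChip after a 30-minute, 22° C reaction terminated by EDTA.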

[2] = target: T2, isolated recombinant JAK2 kinase domain (Homo sapiens, UniProt O60674); experiment: JAK2 enzyme assay (Caliper LabChip, Ki); type: biochemical; conditions: 25 μM ATP
T2 construct: The activity of the isolated recombinant JAK1 and JAK2 kinase domain was measured
T2 sequence (O60674 849-1124 limits assumed): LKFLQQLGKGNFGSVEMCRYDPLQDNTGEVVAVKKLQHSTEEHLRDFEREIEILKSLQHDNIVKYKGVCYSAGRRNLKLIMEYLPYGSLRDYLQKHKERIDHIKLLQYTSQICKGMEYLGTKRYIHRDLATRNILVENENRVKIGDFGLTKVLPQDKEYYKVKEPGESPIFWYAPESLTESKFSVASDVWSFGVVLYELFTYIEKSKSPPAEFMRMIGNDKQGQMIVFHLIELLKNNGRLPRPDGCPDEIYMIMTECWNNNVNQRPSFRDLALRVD
In short: as §1

[3] = system: JAK1-dependent STAT6 phosphorylation downstream of IL-13 stimulation in BEAS-2B human bronchial epithelial cells; experiment: JAK1 pathway assay in BEAS-2B cells (IL-13 stimulated STAT6 phosphorylation, MSD); type: cell-based; conditions: read-out: P-STAT6 BEAS2B + IL13 IC50
In short: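 BEAS-2B human bronchial epithelial cells, plated the day before in complete growth medium, were preincubated with compound for 1 hr at 37° C (0.2% DMSO final), then stimulated with IL-13 at its EC90 for 15 min. STAT6 phosphorylation in lysates was read by MSD; EC50 was taken as 50% inhibition versus DMSO control.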

T1 sequence (P23458 875-1153 limits assumed): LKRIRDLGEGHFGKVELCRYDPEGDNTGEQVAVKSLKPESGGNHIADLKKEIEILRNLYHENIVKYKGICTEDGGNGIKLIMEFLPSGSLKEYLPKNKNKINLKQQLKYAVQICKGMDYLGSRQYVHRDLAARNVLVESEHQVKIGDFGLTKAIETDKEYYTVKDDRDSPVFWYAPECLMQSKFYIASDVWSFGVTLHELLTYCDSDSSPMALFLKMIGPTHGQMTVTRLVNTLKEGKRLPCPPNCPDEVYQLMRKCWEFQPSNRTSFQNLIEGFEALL

| Structure (SMILES) | Ki [1] | Ki [2] | IC50 [3] |
| --- | --- | --- | --- |
| CSc1ccc(OC(F)F)c(-c2nn(C3(CC#N)CNC3)cc2NC(=O)c2cnn3cccnc23)c1 [Example 77, N-(1-(3-(cyanomethyl)azetidin-3-yl)-3-(2-(difluoromethoxy)-5-(methylthio)phenyl)-1H-pyrazol-4-yl)pyrazolo[1,5-a]pyrimidine-3-carboxamide] | 470 pM | 330 pM | 27000 pM |
| CSc1ccc(OC(F)F)c(-c2nn(CC(=O)N3CCC(NCC(C)(F)F)CC3)cc2NC(=O)c2cnn3cccnc23)c1 [Example 19, N-[3-[2-(difluoromethoxy)-5-methylsulfanyl-phenyl]-1-[2-[4-(2,2-difluoropropylamino)-1-piperidyl]-2-oxo-ethyl]pyrazol-4-yl]pyrazolo[1,5-a]pyrimidine-3-carboxamide] | 240 pM | 390 pM | 7400 pM |
| CSc1ccc(OC(F)F)c(-c2nn(CC(=O)N3CCC(N4CCCC(C#N)C4)CC3)cc2NC(=O)c2cnn3cccnc23)c1 (stereo not drawn) [Example 31, N-[1-[2-[4-(3-cyano-1-piperidyl)-1-piperidyl]-2-oxo-ethyl]-3-[2-(difluoromethoxy)-5-methylsulfanyl-phenyl]pyrazol-4-yl]pyrazolo[1,5-a]pyrimidine-3-carboxamide] | 190 pM | 250 pM | 8300 pM |
| CSc1ccc(OC(F)F)c(-c2nn([C@H]3CCCN(C)C3)cc2NC(=O)c2cnn3cccnc23)c1 [Example 12, (S)—N-(3-(2-(difluoromethoxy)-5-(methylthio)phenyl)-1-(1-methylpiperidin-3-yl)-1H-pyrazol-4-yl)pyrazolo[1,5-a]pyrimidine-3-carboxamide] | 410 pM | 320 pM | 6000 pM |
| CSc1ccc(OC(F)F)c(-c2nn(CC(=O)N3CCC(N(C)CC(=O)N(C)C)CC3)cc2NC(=O)c2cnn3cccnc23)c1 [Example 13, N-[3-[2-(difluoromethoxy)-5-methylsulfanyl-phenyl]-1-[2-[4-[[2-(dimethylamino)-2-oxo-ethyl]-methyl-amino]-1-piperidyl]-2-oxo-ethyl]pyrazol-4-yl]pyrazolo[1,5-a]pyrimidine-3-carboxamide] | 440 pM | 900 pM | 57000 pM |
| CSc1ccc(OC(F)F)c(-c2nn(C[C@H]3CCCN3C)cc2NC(=O)c2cnn3cccnc23)c1 [Example 37, N-[3-[2-(difluoromethoxy)-5-methylsulfanyl-phenyl]-1-[[(2R)-1-methylpyrrolidin-2-yl]methyl]pyrazol-4-yl]pyrazolo[1,5-a]pyrimidine-3-carboxamide] | 220 pM | 480 pM | 9900 pM |
| CC(C)Sc1ccc(OC(F)F)c(-c2nn(CC(=O)N3CCC(N4CC5CC(C4)O5)CC3)cc2NC(=O)c2cnn3cccnc23)c1 [Example 130, N-[3-[2-(difluoromethoxy)-5-isopropylsulfanyl-phenyl]-1-[2-[4-(6-oxa-3-azabicyclo[3.1.1]heptan-3-yl)-1-piperidyl]-2-oxo-ethyl]pyrazol-4-yl]pyrazolo[1,5-a]pyrimidine-3-carboxamide] | 570 pM | 1000 pM | 19000 pM |
| CSc1ccc(OC(F)F)c(-c2nn(CC(=O)N3CCC(N(C)C4COC4)CC3)cc2NC(=O)c2cnn3cccnc23)c1 [Example 46, N-(3-(2-(difluoromethoxy)-5-(methylthio)phenyl)-1-(2-(4-(methyl(oxetan-3-yl)amino)piperidin-1-yl)-2-oxoethyl)-1H-pyrazol-4-yl)pyrazolo[1,5-a]pyrimidine-3-carboxamide] | 250 pM | 440 pM | 22000 pM |
| CSc1ccc(OC(F)F)c(-c2nn(CC(=O)N3CCC(N4CCC(C#N)CC4)CC3)cc2NC(=O)c2cnn3cccnc23)c1 [Example 18, N-[1-[2-[4-(4-cyano-1-piperidyl)-1-piperidyl]-2-oxo-ethyl]-3-[2-(difluoromethoxy)-5-methylsulfanyl-phenyl]pyrazol-4-yl]pyrazolo[1,5-a]pyrimidine-3-carboxamide] | 240 pM | 370 pM | 6000 pM |

More lines, main results first:

| Ki [1] | Ki [2] | Structure (SMILES) | IC50 [3] |
| --- | --- | --- | --- |
| 290 pM | 460 pM | O=C(Nc1cn(CC(=O)N2CCN(C3CCOCC3)CC2)nc1-c1cc(SC2CC2)ccc1OC(F)F)c1cnn2cccnc12 [Example 168, N-[3-[5-cyclopropylsulfanyl-2-(difluoromethoxy)phenyl]-1-[2-oxo-2-(4-tetrahydropyran-4-ylpiperazin-1-yl)ethyl]pyrazol-4-yl]pyrazolo[1,5-a]pyrimidine-3-carboxamide] | 14000 pM |
| 470 pM | 940 pM | CC(C)Sc1ccc(OC(F)F)c(-c2nn(CC(=O)N3CCN(C4CCOCC4)CC3)cc2NC(=O)c2cnn3cccnc23)c1 [Example 125, N-[3-[2-(difluoromethoxy)-5-isopropylsulfanyl-phenyl]-1-[2-oxo-2-(4-tetrahydropyran-4-ylpiperazin-1-yl)ethyl]pyrazol-4-yl]pyrazolo[1,5-a]pyrimidine-3-carboxamide] | 17000 pM |
| 360 pM | 290 pM | CC(C)Sc1ccc(OC(F)F)c(-c2nn(Cc3cn(C4CCN(C5CCOC5)CC4)nn3)cc2NC(=O)c2cnn3cccnc23)c1 (stereo not drawn) [Example 156, N-[3-[2-(difluoromethoxy)-5-(propan-2-ylsulfanyl)phenyl]-1-([1-[1-(oxolan-3-yl)piperidin-4-yl]-1H-1,2,3-triazol-4-yl]methyl)-1H-pyrazol-4-yl]pyrazolo[1,5-a]pyrimidine-3-carboxamide] | 21000 pM |
| 650 pM | 1500 pM | O=C(Nc1cn(CC(=O)N2CCC(CN3CCOCC3)CC2)nc1-c1cc(SC2COC2)ccc1OC(F)F)c1cnn2cccnc12 [Example 183, N-[3-[2-(difluoromethoxy)-5-(oxetan-3-ylsulfanyl)phenyl]-1-[2-[4-(morpholinomethyl)-1-piperidyl]-2-oxo-ethyl]pyrazol-4-yl]pyrazolo[1,5-a]pyrimidine-3-carboxamide] | 33000 pM |
| 380 pM | 1000 pM | CC(C)Sc1ccc(OC(F)F)c(-c2nn(CC(=O)N3CCC(N4CCSCC4)CC3)cc2NC(=O)c2cnn3cccnc23)c1 [Example 111, N-[3-[2-(difluoromethoxy)-5-isopropylsulfanyl-phenyl]-1-[2-oxo-2-(4-thiomorpholino-1-piperidyl)ethyl]pyrazol-4-yl]pyrazolo[1,5-a]pyrimidine-3-carboxamide] | 19000 pM |
| 310 pM | 420 pM | CSc1ccc(OC(F)F)c(-c2nn(CC(=O)N3CCC(N4CCO[C@@H](CO)C4)CC3)cc2NC(=O)c2cnn3cccnc23)c1 [Example 86, N-[3-[2-(difluoromethoxy)-5-methylsulfanyl-phenyl]-1-[2-[4-[(2R)-2-(hydroxymethyl)morpholin-4-yl]-1-piperidyl]-2-oxo-ethyl]pyrazol-4-yl]pyrazolo[1,5-a]pyrimidine-3-carboxamide] | 120000 pM |
| 360 pM | 640 pM | CNCCn1cc(NC(=O)c2cnn3cccnc23)c(-c2cc(SC3COC3)ccc2OC(F)F)n1 [Example 178, N-[3-[2-(difluoromethoxy)-5-(oxetan-3-ylsulfanyl)phenyl]-1-[2-(methylamino)ethyl]pyrazol-4-yl]pyrazolo[1,5-a]pyrimidine-3-carboxamide] | 9000 pM |
| 510 pM | 780 pM | CSc1ccc(OC(F)F)c(-c2nn(CC(=O)N3CCN(C4CCN(CC(=O)N(C)C)CC4)CC3)cc2NC(=O)c2cnn3cccnc23)c1 [Example 89, N-[3-[2-(difluoromethoxy)-5-methylsulfanyl-phenyl]-1-[2-[4-[1-[2-(dimethylamino)-2-oxo-ethyl]-4-piperidyl]piperazin-1-yl]-2-oxo-ethyl]pyrazol-4-yl]pyrazolo[1,5-a]pyrimidine-3-carboxamide] | 200000 pM |
| 780 pM | 1900 pM | CC(C)Sc1ccc(OC(F)F)c(-c2nn(CC(=O)N3CCN(CC4CCN(CC(=O)N5CCOCC5)CC4)CC3)cc2NC(=O)c2cnn3cccnc23)c1 [Example 141, N-[3-[2-(difluoromethoxy)-5-isopropylsulfanyl-phenyl]-1-[2-[4-[[1-(2-morpholino-2-oxo-ethyl)-4-piperidyl]methyl]piperazin-1-yl]-2-oxo-ethyl]pyrazol-4-yl]pyrazolo[1,5-a]pyrimidine-3-carboxamide] | 36000 pM |
| 800 pM | 1800 pM | CCN1CCN(C(=O)Cn2cc(NC(=O)c3cnn4cccnc34)c(-c3cc(SC4COC4)ccc3OC(F)F)n2)CC1 [Example 181, N-[3-[2-(difluoromethoxy)-5-(oxetan-3-ylsulfanyl)phenyl]-1-[2-(4-ethylpiperazin-1-yl)-2-oxo-ethyl]pyrazol-4-yl]pyrazolo[1,5-a]pyrimidine-3-carboxamide] | 83000 pM |
| 410 pM | 850 pM | CC(C)Sc1ccc(OC(F)F)c(-c2nn(CC(=O)N3CCN(CCOCCO)CC3)cc2NC(=O)c2cnn3cccnc23)c1 [Example 122, N-[3-[2-(difluoromethoxy)-5-isopropylsulfanyl-phenyl]-1-[2-[4-[2-(2-hydroxyethoxy)ethyl]piperazin-1-yl]-2-oxo-ethyl]pyrazol-4-yl]pyrazolo[1,5-a]pyrimidine-3-carboxamide] | 42000 pM |
